From EP4745135A1 (Gluetacs Therapeutics (Shanghai) Co., Ltd., priority 2023, dated 2025)

Tests used:
CK1α = target: T1, CK1α (Homo sapiens, UniProt P48729+Q96SW2); assay: Western blot, degradation of substrate protein in hPBMCs; format: cell-based
T1 construct: effects of the compounds of the present disclosure on the expression of target proteins in cells; endogenous in cells; host or cells: human PBMCs (Milecell Biotechnologies)

IKZF1 = target: T2, IKZF1 (Homo sapiens, UniProt Q13422+Q96SW2); assay: as above; format: cell-based
T2 construct: effects of the compounds of the present disclosure on the expression of target proteins in cells; endogenous in cells; host or cells: human PBMCs (Milecell Biotechnologies)
T2 sequence (Q13422 whole entry): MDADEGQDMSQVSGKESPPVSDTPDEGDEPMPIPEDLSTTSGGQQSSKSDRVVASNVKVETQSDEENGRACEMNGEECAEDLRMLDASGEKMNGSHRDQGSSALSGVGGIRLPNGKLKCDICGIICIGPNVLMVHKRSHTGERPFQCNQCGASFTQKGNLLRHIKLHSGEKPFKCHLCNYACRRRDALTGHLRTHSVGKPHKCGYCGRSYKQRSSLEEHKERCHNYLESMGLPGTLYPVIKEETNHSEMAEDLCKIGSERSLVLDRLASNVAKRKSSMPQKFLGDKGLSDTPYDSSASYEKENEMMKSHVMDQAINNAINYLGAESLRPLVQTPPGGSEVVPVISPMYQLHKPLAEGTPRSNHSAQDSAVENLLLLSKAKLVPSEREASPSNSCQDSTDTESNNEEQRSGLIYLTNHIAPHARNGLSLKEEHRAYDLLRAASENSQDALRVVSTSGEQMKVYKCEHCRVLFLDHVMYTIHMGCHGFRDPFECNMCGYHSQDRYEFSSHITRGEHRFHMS
T2 sequence (Q96SW2 whole entry): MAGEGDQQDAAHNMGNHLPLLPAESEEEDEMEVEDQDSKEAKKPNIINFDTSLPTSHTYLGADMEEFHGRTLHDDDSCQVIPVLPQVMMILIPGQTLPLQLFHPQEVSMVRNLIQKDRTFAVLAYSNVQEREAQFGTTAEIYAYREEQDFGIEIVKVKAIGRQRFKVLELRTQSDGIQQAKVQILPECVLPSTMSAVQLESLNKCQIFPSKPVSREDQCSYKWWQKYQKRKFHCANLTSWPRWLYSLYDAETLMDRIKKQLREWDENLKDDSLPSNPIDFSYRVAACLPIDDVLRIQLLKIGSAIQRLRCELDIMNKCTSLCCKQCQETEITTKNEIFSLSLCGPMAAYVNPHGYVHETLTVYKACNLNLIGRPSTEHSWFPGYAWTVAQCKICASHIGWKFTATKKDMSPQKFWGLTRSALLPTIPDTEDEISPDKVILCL
T2 sequence (Q16531 whole entry partner): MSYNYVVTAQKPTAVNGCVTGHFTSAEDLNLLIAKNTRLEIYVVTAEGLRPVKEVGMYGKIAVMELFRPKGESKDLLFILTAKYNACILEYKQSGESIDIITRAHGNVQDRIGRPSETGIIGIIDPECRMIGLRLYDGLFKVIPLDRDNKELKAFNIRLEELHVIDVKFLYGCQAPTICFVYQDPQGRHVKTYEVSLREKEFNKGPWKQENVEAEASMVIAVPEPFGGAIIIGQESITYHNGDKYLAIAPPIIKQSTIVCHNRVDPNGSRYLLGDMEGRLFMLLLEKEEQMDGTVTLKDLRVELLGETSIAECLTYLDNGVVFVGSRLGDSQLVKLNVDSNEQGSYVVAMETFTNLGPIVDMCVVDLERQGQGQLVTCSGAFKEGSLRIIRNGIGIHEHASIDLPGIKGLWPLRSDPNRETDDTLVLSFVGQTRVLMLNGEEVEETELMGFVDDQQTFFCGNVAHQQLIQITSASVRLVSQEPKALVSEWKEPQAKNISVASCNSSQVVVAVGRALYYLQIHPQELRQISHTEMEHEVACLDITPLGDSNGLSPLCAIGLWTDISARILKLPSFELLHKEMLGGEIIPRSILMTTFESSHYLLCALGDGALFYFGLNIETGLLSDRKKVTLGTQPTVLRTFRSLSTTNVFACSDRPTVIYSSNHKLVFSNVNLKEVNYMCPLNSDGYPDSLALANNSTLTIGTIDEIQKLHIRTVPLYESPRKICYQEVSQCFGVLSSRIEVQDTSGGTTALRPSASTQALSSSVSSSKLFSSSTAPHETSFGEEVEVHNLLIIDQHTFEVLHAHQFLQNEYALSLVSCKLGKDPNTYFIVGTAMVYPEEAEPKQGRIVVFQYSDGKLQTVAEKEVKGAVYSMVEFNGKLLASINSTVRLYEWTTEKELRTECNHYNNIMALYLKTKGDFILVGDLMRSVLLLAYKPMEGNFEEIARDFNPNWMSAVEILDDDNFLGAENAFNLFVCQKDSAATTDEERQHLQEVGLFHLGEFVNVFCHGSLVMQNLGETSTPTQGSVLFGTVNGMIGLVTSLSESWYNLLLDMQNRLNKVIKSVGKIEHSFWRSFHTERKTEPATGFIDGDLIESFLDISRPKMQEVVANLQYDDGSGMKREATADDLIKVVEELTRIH

IKZF2 = target: T3, IKZF2 (Homo sapiens, UniProt Q96SW2+Q9UKS7); assay: as above; format: cell-based
T3 construct: effects of the compounds of the present disclosure on the expression of target proteins in cells; endogenous in cells; host or cells: human PBMCs (Milecell Biotechnologies)
T3 sequence (Q9UKS7 whole entry): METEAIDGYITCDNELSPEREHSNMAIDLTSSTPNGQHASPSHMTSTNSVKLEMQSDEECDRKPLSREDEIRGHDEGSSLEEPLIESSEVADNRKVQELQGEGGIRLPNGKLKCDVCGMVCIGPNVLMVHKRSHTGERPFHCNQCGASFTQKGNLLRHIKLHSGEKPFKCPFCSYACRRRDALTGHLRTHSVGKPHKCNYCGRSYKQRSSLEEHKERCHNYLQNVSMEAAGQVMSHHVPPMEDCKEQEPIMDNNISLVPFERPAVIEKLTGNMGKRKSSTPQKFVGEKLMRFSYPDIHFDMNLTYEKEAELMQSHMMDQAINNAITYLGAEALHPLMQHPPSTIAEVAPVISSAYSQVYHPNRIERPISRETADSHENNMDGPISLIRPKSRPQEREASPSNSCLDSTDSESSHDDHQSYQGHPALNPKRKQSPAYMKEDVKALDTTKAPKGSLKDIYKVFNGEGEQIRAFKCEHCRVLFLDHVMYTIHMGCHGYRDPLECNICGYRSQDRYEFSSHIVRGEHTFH
T3 sequence (Q96SW2 whole entry): as the sequence (Q96SW2 whole entry) above
T3 sequence (Q16531 whole entry partner): as the sequence (Q16531 whole entry partner) above

IKZF3 = target: T4, IKZF3 (Homo sapiens, UniProt Q96SW2+Q9UKT9); assay: as above; format: cell-based
T4 construct: effects of the compounds of the present disclosure on the expression of target proteins in cells; endogenous in cells; host or cells: human PBMCs (Milecell Biotechnologies)
T4 sequence (Q9UKT9 whole entry): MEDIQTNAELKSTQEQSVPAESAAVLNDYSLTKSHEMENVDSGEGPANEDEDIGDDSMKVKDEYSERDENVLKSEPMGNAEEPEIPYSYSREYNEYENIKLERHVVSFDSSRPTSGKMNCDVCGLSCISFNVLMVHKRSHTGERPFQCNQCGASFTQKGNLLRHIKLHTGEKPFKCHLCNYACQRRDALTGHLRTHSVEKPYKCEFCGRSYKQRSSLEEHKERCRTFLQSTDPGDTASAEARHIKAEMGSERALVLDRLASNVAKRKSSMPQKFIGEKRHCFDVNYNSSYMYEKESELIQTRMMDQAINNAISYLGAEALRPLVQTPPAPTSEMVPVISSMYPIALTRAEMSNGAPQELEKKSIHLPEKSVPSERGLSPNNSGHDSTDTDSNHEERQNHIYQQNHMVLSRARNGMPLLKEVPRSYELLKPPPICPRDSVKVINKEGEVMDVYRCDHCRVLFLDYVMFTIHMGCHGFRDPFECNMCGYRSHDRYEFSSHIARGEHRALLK
T4 sequence (Q96SW2 whole entry): as the sequence (Q96SW2 whole entry) above
T4 sequence (Q16531 whole entry partner): as the sequence (Q16531 whole entry partner) above

WEE1 = target: T5, WEE1 (Homo sapiens, UniProt P30291+Q96SW2); assay: as above; format: cell-based
T5 construct: effects of the compounds of the present disclosure on the expression of target proteins in cells; endogenous in cells; host or cells: human PBMCs (Milecell Biotechnologies)
T5 sequence (P30291 whole entry): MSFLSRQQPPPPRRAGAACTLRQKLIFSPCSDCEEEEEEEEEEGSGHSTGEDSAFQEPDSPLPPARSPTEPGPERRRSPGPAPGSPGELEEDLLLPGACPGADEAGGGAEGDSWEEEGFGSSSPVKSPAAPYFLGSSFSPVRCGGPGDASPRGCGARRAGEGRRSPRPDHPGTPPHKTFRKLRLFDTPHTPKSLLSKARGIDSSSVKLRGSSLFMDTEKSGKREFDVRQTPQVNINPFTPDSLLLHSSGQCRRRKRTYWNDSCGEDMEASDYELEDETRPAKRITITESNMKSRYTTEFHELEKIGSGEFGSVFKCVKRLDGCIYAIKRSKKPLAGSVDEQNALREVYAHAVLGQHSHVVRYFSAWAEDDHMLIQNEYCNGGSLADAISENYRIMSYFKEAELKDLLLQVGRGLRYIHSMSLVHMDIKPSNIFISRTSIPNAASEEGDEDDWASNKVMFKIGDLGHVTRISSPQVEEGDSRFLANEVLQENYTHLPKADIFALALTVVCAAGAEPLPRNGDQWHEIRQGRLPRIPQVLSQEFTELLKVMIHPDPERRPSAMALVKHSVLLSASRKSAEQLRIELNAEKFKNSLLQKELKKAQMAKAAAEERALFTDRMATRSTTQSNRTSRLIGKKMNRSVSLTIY
T5 sequence (Q96SW2 whole entry): as the sequence (Q96SW2 whole entry) above
T5 sequence (Q16531 whole entry partner): as the sequence (Q16531 whole entry partner) above

GSPT1 = assay: as above; format: cell-based, Human
[1] = target: T6, human Cereblon WT GST-tagged protein (Homo sapiens, UniProt Q96SW2); assay: CRBN-binding affinity, HTRF (CEREBLON BINDING kit); details: for inhibition at 0.5 µM: read-out: Inhibition Rate at 0.5 µM (%); for inhibition at 2 µM: read-out: Inhibition Rate at 2 µM (%)
T6 construct: purchased CISBIO 64BDCRBNPEH
T6 sequence (Q96SW2 whole entry): as the sequence (Q96SW2 whole entry) above

[2] = test system: Human multiple myeloma cell (MM.1S); assay: Tumor cell proliferation inhibition (CellTiter-Meiluncell luminescent cell viability assay); details: for inhibition at 0.01 µM / inhibition at 0.5 µM: Homo sapiens, MM1.S, 96 h; for inhibition at 0.01 µM: read-out: Inhibition Rate at 10 nM (%); for Inhibition Rate at 500 nM (%): MM.1S, 96 hours; for inhibition at 0.5 µM: read-out: Inhibition Rate at 500 nM (%)
Procedure: (§1) The tumor cells used herein were cultured in a cell culture medium listed in table 2 at 37°C in an incubator with 5% CO2. Prior to experimentation, all cell lines used were correctly identified by STR profiling, and tested negative for mycoplasma contamination using a mycoplasma detection kit through routine screenings.
(§2) The IC50 values of the compounds of the present disclosure (including the compounds in Table 1 and Examples) were determined using the CellTiter-Meiluncell Luminescent Cell Viability Assay Kit from Dalian Meilun Biotech Co., Ltd. The detailed procedure is as follows: Tumor cells were seeded in 96-well cell culture plates at the densities specified in Table 3. On the following day, the test compounds of the present disclosure were subjected to serial dilution. The dilution can be performed according to one of the following two methods: • (1) The first dilution method: The test compounds of the present disclosure (including the compounds in Table 1 and Examples) were subjected to 5-fold serial dilutions starting from a highest concentration of 2000 µM, resulting in a total of 9 concentrations from high to low (2000, 400, 80, 16, 3.2, 0.64, 0.128, 0.0256, 0.00512 µM). Subsequently, 0.5 µL of the test compound dilution was transferred into the 96-well plate containing the cells, with each well containing 100 µL of cell culture medium. […] Into the 96-well plate, the diluted test compounds and corresponding detection reagents were added, resulting in final test compound concentrations of 500 nM and 10 nM, respectively. The experimental procedure is described below using the diluted 2 µM test compound as an example.
(§3) 0.5 µL of the aforementioned diluted compound of the present disclosure (including the compounds in Table 1 and Examples) was added to the seeded cells in 100 µL of medium, yielding a final test compound concentration of 10 nM. After the cells were treated with the compounds of the present disclosure for a specified period, the cell viability assay reagent was added to the culture medium according to the kit's instructions to determine cell viability. […] All controls were treated using the same procedure as the compounds of the present disclosure. The growth inhibition curves for the compounds of the present disclosure were plotted using Prism GraphPad software, and the IC50 values were calculated therefrom.

[3] = test system: Human multiple myeloma peripheral blood B lymphocyte cell (RPMI-8226); assay: as above; details: RPMI-8226, 96 h; for inhibition at 0.01 µM: read-out: Inhibition Rate at 10 nM (%); for inhibition at 0.5 µM: read-out: Inhibition Rate at 500 nM (%)
Procedure: as §1, §2, §3

[4] = test system: Human acute T lymphocytic leukemia cell (Molt4); assay: as above; details: MOLT-4, 96 h; for inhibition at 0.01 µM: read-out: Inhibition Rate at 10 nM (%); for inhibition at 0.5 µM: read-out: Inhibition Rate at 500 nM (%)
[5] = test system: Human myeloid monocytic leukemia cell (MV-4-11); assay: as above; details: MV4-11, 96 h; for inhibition at 0.01 µM: read-out: Inhibition Rate at 10 nM (%); for inhibition at 0.5 µM: read-out: Inhibition Rate at 500 nM (%)
[6] = test system: Human breast cancer cell (MCF-7); assay: as above; details: MCF7, 96 h; for inhibition at 0.01 µM: read-out: Inhibition Rate at 10 nM (%); for inhibition at 0.5 µM: read-out: Inhibition Rate at 500 nM (%)
[7] = test system: Human T cell acute lymphoblastic leukemia cell (CCRF-CEM); assay: as above; details: 96 h; for inhibition at 0.01 µM: read-out: Inhibition Rate at 10 nM (%); for inhibition at 0.5 µM: read-out: Inhibition Rate at 500 nM (%)
[8] = test system: Human acute myeloid leukemia cell line: Kasumi-1; assay: as above; details: Kasumi 1, 96 h; for inhibition at 0.01 µM: read-out: Inhibition Rate at 10 nM (%); for inhibition at 0.5 µM: read-out: Inhibition Rate at 500 nM (%)
[9] = test system: Human T lymphocytic leukemia cell line: Jurkat; assay: as above; details: 96 h; for inhibition at 0.01 µM: read-out: Inhibition Rate at 10 nM (%); for inhibition at 0.5 µM: read-out: Inhibition Rate at 500 nM (%)
Procedure: as §1, §2, §3

[10] = 24 hours treatment, compounds at 50 nM and 500 nM (concentration behind the class not stated)
[11] = Western blot, 24 hours of compound treatment, compounds tested at 50 nM and 500 nM (concentration for the table not stated)

T1 sequence (P48729 whole entry): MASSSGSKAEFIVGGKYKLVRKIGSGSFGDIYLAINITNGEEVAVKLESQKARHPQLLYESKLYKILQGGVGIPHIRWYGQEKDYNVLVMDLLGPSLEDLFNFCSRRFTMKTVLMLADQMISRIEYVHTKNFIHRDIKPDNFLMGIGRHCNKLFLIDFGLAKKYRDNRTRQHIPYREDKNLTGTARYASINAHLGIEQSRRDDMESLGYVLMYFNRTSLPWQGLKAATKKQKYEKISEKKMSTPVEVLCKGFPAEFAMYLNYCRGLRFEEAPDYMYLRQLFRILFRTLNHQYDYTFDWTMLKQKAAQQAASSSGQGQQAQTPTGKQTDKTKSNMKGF
T1 sequence (Q96SW2 whole entry): as the sequence (Q96SW2 whole entry) above
T1 sequence (Q16531 whole entry partner): as the sequence (Q16531 whole entry partner) above

Row | Structure (SMILES) | CK1α substrate protein remaining % (CK1α; [10]) | IKZF 1 substrate protein remaining % (IKZF1; [10]) | IKZF2 substrate protein remaining % (IKZF2; [10]) | IKZF3 substrate protein remaining % (IKZF3; [10]) | Wee1 substrate protein remaining % (WEE1; [10]) | GSPT1 substrate protein remaining % (GSPT1; [10]) | inhibition at 0.5 µM [1] | inhibition at 2 µM [1] | inhibition at 0.01 µM [2] | inhibition at 0.01 µM [3] | inhibition at 0.5 µM [3] | inhibition at 0.01 µM [4] | inhibition at 0.5 µM [4] | inhibition at 0.01 µM [5] | inhibition at 0.01 µM [7] | inhibition at 0.5 µM [7] | inhibition at 0.01 µM [8] | inhibition at 0.5 µM [8] | inhibition at 0.01 µM [9] | inhibition at 0.5 µM [9] | also measured
1 | O=C1CCC(N2Cc3cc(CN4CC=C(c5ccsc5)CC4)ccc3C2=S)C(=O)N1 (stereo not drawn) [GT-08172, 3-(5-((4-(thiophen-3-yl)-3,6-dihydropyridin-1(2H)-yl)methyl)-1-thioxoisoindolin-2-yl)piperidine-2,6-dione] | A (0% ≤ substrate protein remaining % ≤ 80%) | A (0% ≤ substrate protein remaining % ≤ 80%) | A (0% ≤ substrate protein remaining % ≤ 80%) | A (0% ≤ substrate protein remaining % ≤ 80%) | A (0% ≤ substrate protein remaining % ≤ 80%) | A (0% ≤ substrate protein remaining % ≤ 80%) | 80 to 100% | 80 to 100% | 40 to 50% | 20 to 30% | 80 to 100% | 60 to 70% | 80 to 100% | 60 to 80% | 60 to 70% | 80 to 100% | 20 to 30% | 80 to 100% | 50 to 60% | 80 to 100% | Inhibition Rate at 500 nM (%) [2]: la10; inhibition at 0.5 µM [5]: 80 to 100%; inhibition at 0.01 µM [6]: 50 to 60%; inhibition at 0.5 µM [6]: 70 to 80%
2 | O=C1CCC(N2Cc3cc(CN4CCC(c5cccc(F)c5Cl)CC4)ccc3C2=S)C(=O)N1 (stereo not drawn) [GT-08330, 3-(5-((4-(2-chloro-3-fluorophenyl)piperidin-1-yl)methyl)-1-thioxoisoindolin-2-yl)piperidine-2,6-dione] | A (0% ≤ substrate protein remaining % ≤ 80%) | A (0% ≤ substrate protein remaining % ≤ 80%) | A (0% ≤ substrate protein remaining % ≤ 80%) | A (0% ≤ substrate protein remaining % ≤ 80%) | A (0% ≤ substrate protein remaining % ≤ 80%) | A (0% ≤ substrate protein remaining % ≤ 80%) | 40 to 53% | 60 to 80% | 20 to 30% | 10 to 20% | 70 to 80% | -5 to 0% | 80 to 100% | 10 to 18% | 5 to 10% | 80 to 100% | 5 to 10% | 80 to 100% | -5 to 0% | 70 to 80% | inhibition at 0.5 µM [2]: 80 to 100%; inhibition at 0.5 µM [5]: 80 to 100%; inhibition at 0.01 µM [6]: 10 to 20%; inhibition at 0.5 µM [6]: 50 to 60%
3 | Cc1cc(C2CCN(Cc3ccc4c(c3)CN(C3CCC(=O)NC3=O)C4=S)CC2)cs1 (stereo not drawn) [GT-08325, 3-(5-((4-(5-methylthiophen-3-yl)piperidin-1-yl)methyl)-1-thioxoisoindolin-2-yl)piperidine-2,6-dione] | A (0% ≤ substrate protein remaining % ≤ 80%) | B (80%< substrate protein remaining %≤ 100%) | B (80%< substrate protein remaining %≤ 100%) | B (80%< substrate protein remaining %≤ 100%) | A (0% ≤ substrate protein remaining % ≤ 80%) | A (0% ≤ substrate protein remaining % ≤ 80%) | 60 to 80% | 80 to 100% | 30 to 40% | 20 to 30% | 60 to 70% | 10 to 20% | 80 to 100% | 60 to 80% | 10 to 20% | 80 to 100% | 0 to 5% | 80 to 100% | -5 to 0% | 70 to 80% | inhibition at 0.5 µM [2]: 80 to 100%; inhibition at 0.5 µM [5]: 100 to 110%
4 | O=C1CCC(N2Cc3cc(CN4CCC(c5cccs5)CC4)ccc3C2=S)C(=O)N1 (stereo not drawn) [GT-08329, 3-(5-((4-(thiophen-2-yl)piperidin-1-yl)methyl)-1-thioxoisoindolin-2-yl)piperidine-2,6-dione] | A (0% ≤ substrate protein remaining % ≤ 80%) | B (80%< substrate protein remaining %≤ 100%) | B (80%< substrate protein remaining %≤ 100%) | B (80%< substrate protein remaining %≤ 100%) | A (0% ≤ substrate protein remaining % ≤ 80%) | A (0% ≤ substrate protein remaining % ≤ 80%) | 40 to 53% | 80 to 100% | 10 to 20% | 10 to 20% | 70 to 80% | 10 to 20% | 80 to 100% | -5 to 0% | 10 to 20% | 80 to 100% | 5 to 10% | 80 to 100% | 10 to 20% | 70 to 80% | Inhibition Rate at 500 nM (%) [2]: la10; inhibition at 0.5 µM [5]: 80 to 100%
5 | O=C1CCC(N2Cc3cc(CN4CCC(c5cccc(F)c5F)CC4)ccc3C2=S)C(=O)N1 (stereo not drawn) [GT-08331, 3-(5-((4-(2,3-difluorophenyl)piperidin-1-yl)methyl)-1-thioxoisoindolin-2-yl)piperidine-2,6-dione] | A (0% ≤ substrate protein remaining % ≤ 80%) | A (0% ≤ substrate protein remaining % ≤ 80%) | A (0% ≤ substrate protein remaining % ≤ 80%) | B (80%< substrate protein remaining %≤ 100%) | A (0% ≤ substrate protein remaining % ≤ 80%) | A (0% ≤ substrate protein remaining % ≤ 80%) | 40 to 53% | 80 to 100% | 10 to 20% | 10 to 20% | 40 to 50% | 10 to 20% | 80 to 100% |  | 5 to 10% | 80 to 100% | 5 to 10% | 70 to 80% | 5 to 10% | 50 to 60% | inhibition at 0.5 µM [2]: 80 to 100%
6 | O=C1CCC(N2Cc3cc(CN4CCN(c5ccccc5)CC4)ccc3C2=S)C(=O)N1 (stereo not drawn) [GT-08205, 3-(5-((4-phenylpiperazin-1-yl)methyl)-1-thioxoisoindolin-2-yl)piperidine-2,6-dione] |  |  |  |  |  |  | 60 to 80% | 80 to 100% | 10 to 20% |  |  | 0 to 5% | 60 to 70% | 5 to 10% | 10 to 20% | 60 to 70% | 10 to 20% | 40 to 50% | 5 to 10% | 30 to 40% | CK1α substrate protein remaining % (CK1α; [11]): B (80%< substrate protein remaining %≤ 100%); IKZF 1 substrate protein remaining % (IKZF1; [11]): B (80%< substrate protein remaining %≤ 100%); IKZF2 substrate protein remaining % (IKZF2; [11]): A (0% ≤ substrate protein remaining % ≤ 80%); IKZF3 substrate protein remaining % (IKZF3; [11]): A (0% ≤ substrate protein remaining % ≤ 80%); Wee1 substrate protein remaining % (WEE1; [11]): A (0% ≤ substrate protein remaining % ≤ 80%); GSPT1 substrate protein remaining % (GSPT1; [11]): A (0% ≤ substrate protein remaining % ≤ 80%); Inhibition Rate at 500 nM (%) [2]: la8; inhibition at 0.5 µM [5]: 80 to 100%
